Measured values reported in US9238802B2, “E. coli transformant, method for producing flavin-bound glucose dehydrogenase using the same, and mutant flavin-bound glucose dehydrogenases” (KIKKOMAN CORPORATION, priority 2010, dated 2016).

What was measured:
[1] = tested on: flavin-bound GDHs of the invention; assay: Inhibitory effects of 1,10-phenanthroline, summary; type: biochemical, Mucor
Protocol: (§1) The inhibitory effects of 1,10-phenanthroline on the activities of these flavin-bound GDHs were examined by the following method. According to the enzyme activity assay of Example 1, the enzyme activities when 1,10-phenanthroline was added at final concentrations of 1, 5, 10, 25, and 50 mM were determined to calculate the inhibitory rates relative to 0% of the inhibitory rate when no 1,10-phenanthroline was added.

McGDH = assay: Inhibitory effects of 1,10-phenanthroline on GDH activity; type: biochemical, Mucor circinelloides f. circinelloides NISL0117
Protocol: as §1

MjGDH = assay: as above; type: biochemical, Mucor javanicus NISL0111
Protocol: as §1

MpGDH = assay: as above; type: biochemical, Mucor prainii NISL0103
Protocol: as §1

c1cnc2c(c1)ccc1cccnc12 [1,10-phenanthroline]
inhibitory effects ([1]; 1,10-phenanthroline 1 mM): 2-4% | inhibitory effects ([1]; 1,10-phenanthroline 5 mM): about 10% | GDH inhibition rate (McGDH; 1,10-phenanthroline 1 mM): 1.95% | GDH inhibition rate (McGDH; 1,10-phenanthroline 5 mM): 8.23% | GDH inhibition rate (McGDH; 1,10-phenanthroline 10 mM): 12.8% | GDH inhibition rate (McGDH; 1,10-phenanthroline 25 mM): 36.2% | GDH inhibition rate (McGDH; 1,10-phenanthroline 50 mM): 68.5% | GDH inhibition rate (MjGDH; 1,10-phenanthroline 1 mM): 3.27% | GDH inhibition rate (MjGDH; 1,10-phenanthroline 5 mM): 13.1% | GDH inhibition rate (MjGDH; 1,10-phenanthroline 10 mM): 23.5% | GDH inhibition rate (MjGDH; 1,10-phenanthroline 25 mM): 64.7% | GDH inhibition rate (MjGDH; 1,10-phenanthroline 50 mM): 88.9% | GDH inhibition rate (MpGDH; 1,10-phenanthroline 1 mM): 3.72% | GDH inhibition rate (MpGDH; 1,10-phenanthroline 5 mM): 10.1% | GDH inhibition rate (MpGDH; 1,10-phenanthroline 10 mM): 23.9% | GDH inhibition rate (MpGDH; 1,10-phenanthroline 25 mM): 44.1% | GDH inhibition rate (MpGDH; 1,10-phenanthroline 50 mM): 68.6%
